Measurements from patent US9505841B2, “Use of an anti-Ang2 antibody” (Samsung Electronics Co., Ltd., priority 2013, dated 2016).

Legend:
[1] = system: LLC tumor; assay: Co-administration of anti-Ang2 antibody and cisplatin in LLC lung cancer animal model; type: in vivo, mouse; conditions: LLC mice; antibody 10 mg/kg i.p. every three days, five times; cisplatin 3 mg/kg i.p. once; control Fc of IgG1
Description: The synergistic effect of co-treatment of antibody 10D6 and cisplatin was examined.
In particular, referring to Example 14, LLC tumor cells were subcutaneously injected into mice. When the size of tumors reached 50˜100 mm^3, anti-Ang2 antibody 10D6 was injected at the concentration of 10 mg/kg via an intraperitoneal injection every three days a total of five times. After administering antibody 10D6 twice, 3 mg/kg of cisplatin (Sigma-Aldrich) was intraperitoneally injected once. The size of tumor (V) was calculated using the following formula: Volume (V)=(width)2×length/2
For comparison, the same experiment was performed to a control group treated with Fc of IgG1 and a comparative group treated with antibody 4H10.
In addition, an experiment was performed to examine whether the synergistic effect obtained by co-administration of 10D6 and cisplatin as described above is due to the increased transporting efficiency of the administered cisplatin induced by the vascular normalization by treatment of 10D6. Cisplatin binds to DNA in a living body and induces crosslinking, thereby inducing cell death. Rat monoclonal anti-Cisplatin modified DNA (CP9/19) antibody (1:200, Abcam), which is capable of binding to DNA modified by cisplatin in tumor frozen sections, and hamster anti-CD31 antibody (1:200, Millipore), were used for immunofluorescence staining, and fluorescence images were obtained using LSM5 confocal microscope (Zeiss). In addition, to examine necrotic region, the tumor frozen sections were stained with H&E according to standard protocol, and then, Eosin+ cell region in tumor was observed. The obtained results are illustrated in FIG. 18C.

[2] = system: Tie2 receptor; assay: Tie2, Akt and 42/44 phosphorylation in HUVEC: antibody 10D6 versus 10D6 Fab; type: cell-based, human; conditions: 60 nM 10D6 antibody or 10D6 Fab with 40 nM Ang2
Description: To see whether the activation of a Tie2 receptor is resulted from the dimerization of antibody 10D6, Fab fragments of antibody 10D6 were purified and then used for this experiment. The Fab fragments were obtained from antibody 10D6 using an Fab Preparation Kit (Pierce). As a digestion buffer, PBS containing 20 mM EDTA and 20 mM L-Cysteine was used, and the antibody was separated into Fab and Fc by the treatment with an immobilized papain at a room temperature for 2 hours. The Fc fragments were removed from the reaction solution using MabSelectSuRe column (GE Healthcare) to isolate and purify pure Fab fragments only.
HUVEC (ATCC) cells (1×10^6) were cultured in a 100 mm culture dish using EGM-2 (Lonza) media at 37° C. and when they reached 80˜90% confluency, the media were replaced with serum-free media (Lonza) and cultured at 37° C. for 6 to 16 hours. The dish was washed once with PBS and after the replacement with […] sodium orthovanadate (Sigma)-mixed serum free media (Lonza), they were further cultured for 10 min. After washed once with PBS, the cultured cells were treated with a mixture prepared by mixing 60 nM of 10D6 Ang2 antibody or 10D6 Fab with 40 nM of Ang2 protein (R&D systems) and letting them stand for 20 min. and further cultured for 10 min. […]

Row | Molecule | tumor size decreased by, compared to the control [1] | phosphorylation of Tie2, Akt and 42/44 [2]
1 | N.N.[Cl][Pt][Cl] [cisplatin, reference compound] | 17.6% | –
2 | 10D6 Fab: Fab fragments of antibody 10D6 obtained by immobilized papain digestion and removal of Fc (antibody, V domains shown) VH: DVQLQESGPGLVKPSQSLSLTCTVTGYSITSDYAWNWIRQFPGNKLEWMGYINYSGNTDYNPSLKSRSSITRDTSKNQFFLQLNSVTTGDTATYYCARGNFEGAMDYWGQGTSVTVSS VL: SIVMTQTPKFLLVSAGDRVTITCKASQSVSNDVAWYQQKPGQSPKLLIYYASNRYPGVPDRFTGSGYGTDFTFTISTVQAEDLAVYFCQQDYSSPWTFGGGTKLEIK | – | activation was not observed
